Measurements reported in patent US12077555B2, “STAT degraders and uses thereof” (Kymera Therapeutics, Inc., priority 2019, dated 2024).

Target: STAT3 (Homo sapiens, UniProt P40763)
Assay: STAT3 HiBiT degradation assay in transfected A549 cells
Format: cell-based
Design: expressed in transfected cells; host or cells: A549
Settings: A549, 24 h; read-out: STAT3 HiBiT A549 degradation 24 h: Average external-Abs DC50
Summary of the method: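 Transfected A549 cells (~2000/well) plated 24 h, then treated 24 h at 37 °C, 5% CO2 with a 3-fold, 10-point compound dilution. HiBiT lytic luminescence read after 10 min at room temperature; remaining STAT3 normalized to negative and positive controls, four-parameter fit. DC50 binned A <0.01, B 0.01–0.1, C 0.1–1.0, D >1.0 µM.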

Sequence of STAT3 (P40763 whole entry): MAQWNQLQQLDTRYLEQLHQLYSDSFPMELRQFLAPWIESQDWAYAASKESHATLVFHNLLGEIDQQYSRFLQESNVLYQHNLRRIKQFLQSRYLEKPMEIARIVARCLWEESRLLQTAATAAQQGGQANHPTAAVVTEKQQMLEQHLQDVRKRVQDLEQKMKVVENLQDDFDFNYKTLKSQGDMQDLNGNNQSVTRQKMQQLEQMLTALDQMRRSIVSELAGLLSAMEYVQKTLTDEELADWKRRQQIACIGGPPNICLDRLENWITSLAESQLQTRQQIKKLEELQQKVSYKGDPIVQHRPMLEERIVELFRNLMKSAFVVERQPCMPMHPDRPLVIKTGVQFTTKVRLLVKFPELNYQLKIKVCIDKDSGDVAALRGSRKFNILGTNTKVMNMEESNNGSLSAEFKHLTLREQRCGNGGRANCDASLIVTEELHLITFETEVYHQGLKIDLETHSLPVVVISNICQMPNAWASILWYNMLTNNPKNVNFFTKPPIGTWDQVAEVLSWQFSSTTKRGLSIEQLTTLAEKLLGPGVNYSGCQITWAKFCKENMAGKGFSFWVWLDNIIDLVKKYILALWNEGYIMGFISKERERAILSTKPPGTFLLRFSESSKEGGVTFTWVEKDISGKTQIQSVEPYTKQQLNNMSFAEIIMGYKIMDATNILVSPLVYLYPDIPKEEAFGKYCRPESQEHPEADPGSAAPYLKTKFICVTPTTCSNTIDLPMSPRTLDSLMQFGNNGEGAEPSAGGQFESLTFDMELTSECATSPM

Row | Structure (SMILES) | DC50
1 | Cc1ncsc1-c1ccc([C@H](C)NC(=O)[C@@H]2C[C@H](O)CN2C(=O)[C@@H](NC(=O)CCCCc2ccc(CO[C@H](C)[C@H](CCC(N)=O)NC(=O)[C@@H]3Cc4cccc5c4N3C(=O)[C@@H](NC(=O)c3cc4cc(C(=O)P(=O)(O)O)ccc4[nH]3)CC5)cc2)C(C)(C)C)cc1 [Compound I-149, diammonium 2-[[(2S,11S)-2-[[(3S,4R)-1-carbamoyl-4-[[4-(4-[[(2S)-1-[(2S,4S)-4-hydroxy-2-[[(1S)-1-[4-(4-methyl-1,3-thiazol-5-yl)phenyl]ethyl]carbamoyl]pyrrolidin-1-yl]-3,3-dimethyl-1-oxobutan-2-yl]carbamoyl]butyl)phenyl]methoxy]pentan-3-yl]carbamoyl]-12-oxo-1-azatricyclo [6.4.1.0^[4,13]]trideca-4(13),5,7-trien-11-yl]carbamoyl]-1H-indole-5-carbonylphosphonate] | > 1000 nM
2 | CN1C(=O)CCC(n2c(=O)n(C)c3cc(CCCCCCC(=O)N4CC[C@H]5CC[C@@H](C(=O)N[C@@H](CCC(N)=O)C(=O)NC(c6ccccc6)c6ccccc6)N5C(=O)[C@@H](NC(=O)c5cc6cc(C(=O)P(=O)(O)O)ccc6[nH]5)C4)ccc32)C1=O (stereo partly drawn) [Compound I-150, 2-[[(5S,8S,10aR)-8-[[(1S)-3-carbamoyl-1-(diphenylmethylcarbamoyl)propyl]carbamoyl]-3-[7-[3-methyl-1-(1-methyl-2,6-dioxopiperidin-3-yl)-2-oxo-1,3-benzodiazol-5-yl]heptanoyl]-6-oxo-octahydropyrrolo[1,2-a][1,5]diazocin-5-yl]carbamoyl]-1H-indole-5-carbonylphosphonic acid] | > 1000 nM
3 | Cc1ncsc1-c1ccc(CNC(=O)[C@@H]2C[C@@H](O)CN2C(=O)[C@@H](NC(=O)NCCCc2ccc(CO[C@H](C)[C@H](CCC(N)=O)NC(=O)[C@@H]3Cc4cccc5c4N3C(=O)[C@@H](NC(=O)c3cc4cc(C(=O)P(=O)(O)O)ccc4[nH]3)CC5)cc2)C(C)(C)C)cc1 [Compound I-151, 2-[[(2S,11S)-2-[[(3S,4R)-1-carbamoyl-4-([4-[3-([[(2S)-1-[(2S,4R)-4-hydroxy-2-([[4-(4-methyl-1,3-thiazol-5-yl)phenyl]methyl]carbamoyl)pyrrolidin-1-yl]-3,3-dimethyl-1-oxobutan-2-yl]carbamoyl]amino)propyl]phenyl]methoxy)pentan-3-yl]carbamoyl]-12-oxo-1-azatricyclo[6.4.1.0^[4,13]]trideca-4(13),5,7-trien-11-yl]carbamoyl]-1H-indole-5-carbonylphosphonic acid] | 100 to 1000 nM
4 | Cc1ncsc1-c1ccc(CNC(=O)[C@@H]2C[C@@H](O)CN2C(=O)[C@@H](NC(=O)CCCCCc2ccc(OC[C@H](CCC(N)=O)NC(=O)[C@@H]3Cc4cccc5c4N3C(=O)[C@@H](NC(=O)c3cc4cc(C(=O)P(=O)(O)O)ccc4[nH]3)CC5)cc2)C(C)(C)C)cc1 [Compound I-152, 2-[[(2S,11S)-2-[[(2S)-4-carbamoyl-1-[4-(5-[[(2S)-1-[(2S,4R)-4-hydroxy-2-([[4-(4-methyl-1,3-thiazol-5-yl)phenyl]methyl]carbamoyl)pyrrolidin-1-yl]-3,3-dimethyl-1-oxobutan-2-yl]carbamoyl]pentyl)phenoxy]butan-2-yl]carbamoyl]-12-oxo-1-azatricyclo [6.4.1.0^[4,13]]trideca-4(13),5,7-trien-11-yl]carbamoyl]-1H-indole-5-carbonylphosphonic acid] | > 1000 nM
5 | Cc1ncsc1-c1ccc(CNC(=O)[C@@H]2C[C@@H](O)CN2C(=O)[C@@H](NC(=O)CCCCCCCCCOC[C@H](CCC(N)=O)NC(=O)[C@@H]2Cc3cccc4c3N2C(=O)[C@@H](NC(=O)c2cc3cc(C(=O)P(=O)(O)O)ccc3[nH]2)CC4)C(C)(C)C)cc1 [Compound I-153, 2-[[(2S,11S)-2-[[(2S)-4-carbamoyl-1-[(9-[[(2S)-1-[(2S,4R)-4-hydroxy-2-([[4-(4-methyl-1,3-thiazol-5-yl)phenyl]methyl]carbamoyl)pyrrolidin-1-yl]-3,3-dimethyl-1-oxobutan-2-yl]carbamoyl]nonyl)oxy]butan-2-yl]carbamoyl]-12-oxo-1-azatricyclo[6.4.1.0^[4,13]]trideca-4(13),5,7-trien-11-yl]carbamoyl]-1H-indole-5-carbonylphosphonic acid] | > 1000 nM
